Experimental data published in patent publication US20240207292A1, “BORONIC ACID COMPOUNDS, COMPOSITIONS AND METHODS” (Trustees of Tufts College, priority 2021, published 2024).
Read-outs that look alike come from different tables or passages of the source. Blank lines part the entries; values can stand above or below the compound they belong to.

How the values were obtained:
[1] = Stability of bortezomib with excipients in water, propyleneglycol (PG) or butylene glycol (BG) at 1 mg/mL, 50° C.; format: physicochemical
Protocol: In Examples 1-3 below, Tables 1, 2 and 3 summarize the effectiveness of sulfur compounds in stabilizing bortezomib such as against oxidation and decomposition reactions. For each of the following Examples 1-3, the following procedures were used: Samples preparation: 100 mg of the API (active pharmaceutical ingredient) was suspended into 100 mL of water or other ratioed solvents, mixed well by using a vortex mixer and sonicator (with gentle warm if necessary) to make a 1 mg/mL of solution A. 10 mg of each excipient was weighed into avial, and 1 mL of solution A was added, mixed well to give the test solution B (10:1 of excipient/API). Took 100 μL of solution B and diluted into 1 mL with solution A to give the test solution C (1:1 of excipient/API). Took 100 μL of solution C and diluted into 1 mL with solution A to give the test solution D (0.1:1 of excipient/API). For solid powderform of Bortezomib with the excipients, method in US 2005/0282742 A1 was adopted. […]
Aqueous formulations of bortezomib together with a number of sulfur-containing compounds in varying weight ratios were evaluated for stability over time based on purity of Bortezomib in water, propyleneglycol (PG) or butylene glycol (BG) at 1 mg/mL, 50° C.

[2] = molecular target: recombinant human fibroblast activation protein (FAP) (Homo sapiens (Human), UniProt Q12884); assay: In vitro assay fibroblast activation protein IC50 (Example 21); format: biochemical
[3] = molecular target: recombinant human prolyl oligopeptidase (PREP) (Homo sapiens (Human), UniProt P48147); assay: In vitro assay prolyl oligopeptidase IC50 (Example 21); format: biochemical
[4] = molecular target: recombinant human dipeptidyl peptidase IV (DPPIV) (Homo sapiens (Human), UniProt P27487); assay: In vitro assay dipeptidyl peptidase IV IC50 (Example 21); format: biochemical
Protocol: The purpose of this assay is to determine the IC50 of various inhibitors against recombinant human dipeptidyl peptidase IV (DPPIV), fibroblast activation protein (FAP) or prolyl oligopeptidase (PREP).
The assays are conducted in the following steps: • 1 Dissolve the compound in DMSO to a final concentration of 100 mM. From this, prepare a 1 mM stock at pH 7.5 in 50 mM Tris, 140 mM NaCl Buffer (FAP)/pH 7.5 in 25 mM Tris, 250 mM NaCl Buffer/[…]. • 2. Serial dilute (1:10) the 1 mM compound stocks prepared previously into the appropriate assay buffer (FAP: 50 mM Tris, 140 mM NaCl, pH 7.5/PREP: 25 mM Tris, 0.25 M NaCl, pH 7.5/DPPIV: 25 mM Tris, pH 8.0) to one row of a 96-well plate. • 3. […] Dilute the enzymes into their appropriate assay buffers. The final enzyme concentrations should be 0.1, 1.2, and 0.6 nM for DPPIV, FAP and PREP respectively. Add 180 μL to each well needed in columns 2-10. Column 1(A,B,C) should be prepared with 200 μl of appropriate assay buffer as control. Column 1(D,E,F,G,H) should be prepared with 20 μl of appropriate assay buffer and 180 ul enzyme as no inhibitor control. • 5. Add 20 μL of the compound of interest from the dilution plate prepared in step 2 to columns 2-10 of the assay plate where appropriate. Each sample should be tested in triplicate. Allow this to incubate for 10 minutes at room temperature, shaking the plate for the first two minutes. • 6. Add 10 μL of 20× substrate prepared in step 3 to each well and allow this to incubate for 15 minutes at room temperature, shaking the plate for the first two minutes. • 7. Read the fluorescence at λex: 380, λem: 460. (DPcore=[dAla|dSer|Gly]-[boroPro|Pro-nitrile], XXaa=alpha-amino acid)

[5] = Solubility in water after lyophilization
[6] = Degradation in aqueous solution of pH about 3 during HPLC purification and lyophilization; details: during HPLC purification and subsequent lyophilization
[7] = physchem; details: water
[8] = lyophilized powder reconstituted before administration; cited from earlier work

Sequence of recombinant human dipeptidyl peptidase IV (DPPIV) (P27487 whole entry): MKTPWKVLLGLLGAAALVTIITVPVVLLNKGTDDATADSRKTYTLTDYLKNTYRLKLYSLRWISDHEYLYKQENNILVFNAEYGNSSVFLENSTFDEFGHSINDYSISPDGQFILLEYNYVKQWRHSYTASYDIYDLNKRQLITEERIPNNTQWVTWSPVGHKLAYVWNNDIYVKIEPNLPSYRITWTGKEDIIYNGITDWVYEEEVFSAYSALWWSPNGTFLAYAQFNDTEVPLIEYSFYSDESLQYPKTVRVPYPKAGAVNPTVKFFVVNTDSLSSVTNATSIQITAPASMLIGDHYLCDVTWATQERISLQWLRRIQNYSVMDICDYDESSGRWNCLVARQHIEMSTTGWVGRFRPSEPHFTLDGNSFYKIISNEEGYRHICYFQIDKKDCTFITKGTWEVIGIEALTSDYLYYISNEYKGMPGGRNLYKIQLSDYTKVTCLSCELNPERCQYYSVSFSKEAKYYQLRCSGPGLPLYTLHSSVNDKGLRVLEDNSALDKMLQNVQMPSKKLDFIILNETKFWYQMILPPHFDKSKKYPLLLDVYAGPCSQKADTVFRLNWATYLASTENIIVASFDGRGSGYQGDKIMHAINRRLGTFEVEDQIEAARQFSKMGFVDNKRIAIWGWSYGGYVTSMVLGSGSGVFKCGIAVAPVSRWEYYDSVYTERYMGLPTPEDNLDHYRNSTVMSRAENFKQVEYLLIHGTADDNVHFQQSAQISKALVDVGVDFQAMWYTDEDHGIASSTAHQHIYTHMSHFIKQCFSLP
Sequence of recombinant human prolyl oligopeptidase (PREP) (P48147 whole entry): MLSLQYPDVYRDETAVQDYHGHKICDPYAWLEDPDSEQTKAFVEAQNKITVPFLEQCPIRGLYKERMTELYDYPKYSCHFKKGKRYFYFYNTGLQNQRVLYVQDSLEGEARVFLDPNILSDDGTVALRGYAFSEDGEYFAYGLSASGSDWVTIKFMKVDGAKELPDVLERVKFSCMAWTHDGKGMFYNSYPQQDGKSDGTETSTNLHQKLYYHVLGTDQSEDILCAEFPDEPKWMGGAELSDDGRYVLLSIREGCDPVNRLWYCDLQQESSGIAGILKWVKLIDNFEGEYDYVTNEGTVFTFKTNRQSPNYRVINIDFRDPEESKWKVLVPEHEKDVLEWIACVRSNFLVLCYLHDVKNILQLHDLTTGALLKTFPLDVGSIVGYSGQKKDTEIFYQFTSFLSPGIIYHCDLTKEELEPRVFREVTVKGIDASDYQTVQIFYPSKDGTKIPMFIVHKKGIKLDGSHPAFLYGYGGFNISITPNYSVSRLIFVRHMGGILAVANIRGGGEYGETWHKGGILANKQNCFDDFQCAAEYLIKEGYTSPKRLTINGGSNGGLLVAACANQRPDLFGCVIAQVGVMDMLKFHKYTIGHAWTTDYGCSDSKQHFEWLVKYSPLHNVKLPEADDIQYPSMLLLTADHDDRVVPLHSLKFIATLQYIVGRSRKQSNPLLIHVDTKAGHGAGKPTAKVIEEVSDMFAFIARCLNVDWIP
Sequence of recombinant human fibroblast activation protein (FAP) (Q12884 whole entry): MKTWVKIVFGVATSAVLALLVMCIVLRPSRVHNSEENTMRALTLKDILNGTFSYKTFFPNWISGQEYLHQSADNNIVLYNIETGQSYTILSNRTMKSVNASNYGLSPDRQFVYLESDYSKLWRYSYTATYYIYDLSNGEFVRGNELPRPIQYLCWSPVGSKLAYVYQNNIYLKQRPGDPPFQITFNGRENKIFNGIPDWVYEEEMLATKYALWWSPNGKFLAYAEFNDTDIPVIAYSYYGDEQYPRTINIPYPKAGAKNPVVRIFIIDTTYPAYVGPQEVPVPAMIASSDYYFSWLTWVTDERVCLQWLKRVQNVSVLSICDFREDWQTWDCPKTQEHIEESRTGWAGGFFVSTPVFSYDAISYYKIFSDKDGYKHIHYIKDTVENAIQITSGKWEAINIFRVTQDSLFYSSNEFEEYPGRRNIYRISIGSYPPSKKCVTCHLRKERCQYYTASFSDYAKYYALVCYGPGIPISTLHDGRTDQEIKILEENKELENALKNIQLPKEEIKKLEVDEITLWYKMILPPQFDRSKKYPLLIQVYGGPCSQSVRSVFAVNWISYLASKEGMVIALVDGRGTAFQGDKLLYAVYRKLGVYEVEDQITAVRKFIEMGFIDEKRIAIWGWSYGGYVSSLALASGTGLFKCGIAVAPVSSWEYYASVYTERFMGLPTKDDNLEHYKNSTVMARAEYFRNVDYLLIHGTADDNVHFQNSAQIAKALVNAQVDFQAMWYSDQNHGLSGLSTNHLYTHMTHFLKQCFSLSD

protection of bortezomib ([1]; with N-Acetyl-L-methionine): essentially complete protection
SMILES: CSCC[C@H](NC(C)=O)C(=O)O [N-Acetyl-L-methionine, N-acetyl-L-methionine]

SMILES: C[C@@H](NC(=O)c1ccc(CNC(=O)CN2CCN3CCN4CCN(CC2)CC(=O)[O][Lu]([O]C(=O)C3)[O]C(=O)C4)cc1)C(=O)N1CCC[C@H]1B(O)O [6555LU]
IC50 [2]: 0.014 µM
IC50 [3]: 3.4 µM
IC50 [4]: > 100 µM
solubility in water [5]: > 50 mg/mL
degradation in aqueous solution [6]: did not observe any sign of degradation

IC50 ([2]; Z-Gly-Pro-AMC, 1.2 nM enzyme): 0.0047 µM
IC50 ([3]; Z-Gly-Pro-AMC, 0.6 nM enzyme): 4.6 µM
IC50 ([4]; Gly-Pro-AMC, 0.1 nM enzyme): > 100 µM
solubility [7]: > 50 mg/mL
degradation in aqueous solution [6]: did not observe any sign of degradation
SMILES: C[C@@H](NC(=O)[C@H]1CC[C@H](CNC(=O)CN2CCN(CC(=O)O)CCN(CC(=O)O)CCN(CC(=O)O)CC2)CC1)C(=O)N1CCC[C@H]1B(O)O [compound 6952]

decomposition of bortezomib ([1]; in the absence of N-Acetyl-L-methionine): 67%
SMILES: CC(C)C[C@H](NC(=O)[C@H](Cc1ccccc1)NC(=O)c1cnccn1)B(O)O [Bortezomib, reference compound]
time the reconstituted solution is sufficiently stable [8]: up to 8 hours
